From US9636286B2, “Antimicrobial cleanser” (Coloplast A/S, priority 2013, dated 2017)

Columns and labels:
[1] = tested on: reconstructed human epidermis (RhE) model; design: unit not given beside the values; conditions: known irritants and non-irritants given as examples of the scale; cited from earlier work
[2] = tested on: reconstructed human epidermis (RhE) model; test: In vitro irritancy, EpiDerm MTT ET50 Protocol (EPI-200), Example 1; format: cell-based
Experimental: In vitro irritancy was tested using a commercially available kit “EpiDerm MTT ET50 Protocol (EPI-200)”, available from MatTek Corporation (Ashland, Mass.). The test kit is used as a validated replacement for in vivo irritation testing otherwise known as “Draize testing”, in the EU (OECD TG439). Our method of data analysis and outcome prediction is altered slightly to determine relative differences in irritation potential between experimental neat materials tested within the same kit.
The test consists of a topical exposure of the neat experimental material to a reconstructed human epidermis (RhE) model followed by a cell viability assay. The cell viability test method is based on the enzymatic conversion of mitochondrial dehydrogenase with MTT [(3-4,5-dimethyl thiazole-2-yl) 2,5-diphenyltetrazolium bromide], resulting in a blue formazan salt, which is than extracted from the tissues and quantitated. […]
EpiDerm tissues are conditioned overnight at 37±2° C., 5% CO2, to relieve stress from the shipping process. […] After the three hour incubation in MTT, the formazan salt is extracted using 2.0 mL of isopropanol and the optical density (OD) of each sample is measured at 570 nm. Relative cell viability is calculated as a % of the mean of the negative control tissue. Dose-response curves are constructed for each sample and an ET50 value is calculated. […]

Row | Compound | ET50 (Irritancy Scale, example substances) [1] | Expected In vivo Irritancy Score ([2]; from ET50 by Irritancy Scale) | ET50 Value ([2]; neat material, exposure 1, 4 or 24 hrs, time to reduce cell viability to 50%)
1 | CCCCCCCCCCCCOS(=O)(=O)[O-].[Na+] [1% SDS, SDS] | 0.5-4 |  | 
2 | O=[N+]([O-])O [Nitric Acid] | <0.5 |  | 
3 | Triton X-100 [1.0% Triton X-100] | 4-12 | very mild (12-24) | 12.69 h
